Source: patent US9206200B2, “N-linked lactam M1 receptor positive allosteric mogulators” (Merck Sharp & Dohme Corp., priority 2011, dated 2015)
Like-named read-outs stand apart in the source and are kept apart here.

Biological target: T1, acetylcholine muscarinic M1 receptor (Homo sapiens, UniProt P11229)
T1 construct: expressed in transfected cells; host or cells: CHOnfat cells (CHO cells with an NFAT reporter) expressing hM1, kept under Geneticin selection
T1 sequence (P11229 1-460): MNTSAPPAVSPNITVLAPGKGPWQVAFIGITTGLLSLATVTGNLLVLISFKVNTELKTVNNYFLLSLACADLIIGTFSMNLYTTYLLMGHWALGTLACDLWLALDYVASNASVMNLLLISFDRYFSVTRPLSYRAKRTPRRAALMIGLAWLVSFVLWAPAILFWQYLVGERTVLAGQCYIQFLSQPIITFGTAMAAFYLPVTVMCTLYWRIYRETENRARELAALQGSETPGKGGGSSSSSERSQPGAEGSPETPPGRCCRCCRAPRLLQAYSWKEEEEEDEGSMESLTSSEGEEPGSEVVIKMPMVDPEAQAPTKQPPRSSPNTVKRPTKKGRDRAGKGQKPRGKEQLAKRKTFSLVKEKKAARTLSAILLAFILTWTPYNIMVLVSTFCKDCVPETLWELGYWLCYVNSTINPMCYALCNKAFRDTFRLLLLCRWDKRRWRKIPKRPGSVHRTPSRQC
Assay: muscarinic FLIPR assay: intracellular calcium in CHOnfat/hM1 cells, potentiation of EC20 acetylcholine
Format: cell-based
Details: EC20 acetylcholine (3 nM final)
Protocol: The assay studies the effect of one or several concentrations of test compounds on basal or acetylcholine-stimulated Ca^2+ levels using FLIPR.
Compounds are prepared and subjected to a preincubation period of […]. Thereafter, a single EC20 concentration of acetylcholine is added to each well (3 nM final). The intracellular Ca^2+ level of each sample is measured and compared to an acetylcholine control to determine any modulatory activity.
Cells: CHOnfat/hM1, hM2, hM3 or hM4 cells are plated 24 hr before the assay at a density of 18,000 cells/well (100 μL) in a 384 well plate. CHOnfat/hM1 and CHOnfat/hM3 Growth Medium: 90% DMEM (Hi Glucose); 10% HI FBS; 2 mM L-glutamine; 0.1 mM NEAA; Pen-Strep; and 1 mg/ml Geneticin, are added. For M2Gqi5CHOnfat and M4Gqi5CHOnfat cells, an additional 600 ug/ml hygromycin is added.
Equipment: 384 well plate, 120 μl, addition plate; 96-well Whatman 2 ml Uniplate Incubator, 37° C., 5% CO2; Skatron EMBLA-384 Plate Washer; Multimek Pipetting System; Genesis Freedom 200 System; Mosquito System; Temo Nanolitre Pipetting System; and FLIPR^384 Fluorometric Imaging Plate Reader System are used.
Buffers. Assay Buffer: Hanks Balanced Salt Solution, with 20 mM Hepes, 2.5 mM Probenecid (Sigma P-8761) first dissolved in 1 N NaOH, 1% Bovine Serum Albumin (Sigma A-9647). Dye Loading Buffer: Assay Buffer plus 1% Fetal Bovine Serum and Fluo-4AM/Pluronic Acid Mixture. 2 mM Fluo-4AM ester stock in DMSO (Molecular Probes F-14202) Concentration of 2 μM in buffer for a final concentration of 1 μM in Assay. 20% Pluronic Acid Solution stock, with concentration of 0.04% in Buffer, 0.02% in Assay.
65 μL of 2 mM Fluo-4AM are mixed with 130 μL of 20% Pluronic Acid. The resulting solution and 650 μL FBS is added to the assay buffer for a total volume of 65 mL. Positive Controls: 4-Br-A23187: 10 mM in DMSO; final concentration 10 μM. Acetylcholine: 10 mM in water, working stock at both 20 μM and 30 μM in assay buffer, final concentration of 10 μM. This is used to check the maximum stimulation of the CHOK1/hM1 cells. 20 μM (2×) acetylcholine is added in the preincubation part of the assay, and the 30 μM (3×) stock is added in the second part. (EC20)Acetylcholine: 10 mM in water, working stock of 9 nM (3×), and final concentration in assay is 3 nM. This is used after the preincubation with test compounds. Addition of the EC20 Acetylcholine to each well with a test compound will ascertain any modulator activity. 24 wells contain 3 nM Acetylcholine alone as a control.
Determining Activity of Putative Compounds:
Screening Plate Compounds are titrated in 96-well plates (columns 2-11), 100% DMSO, started at a concentration of 15 mM (150× stock concentration), and 3-fold serial dilutions using Genesis Freedom200 System. Four 96-well plates are combined into a 384-well plate using Mosquito Nanolitre Pipetting System by transferring 1 μl of serial diluted compounds to each well, and 1 mM acetylcholine (100× stock concentration) were added as a control. Using Temo, 49 μl assay buffer is added to each well of the 384-well plate right before assay.
In a 96-well Whatman 2 ml Uniplate, 9 nM Acetylcholine (3×) is pipetted into wells corresponding to the screening compounds, and into control wells. The 30 μM acetylcholine control (3×) is added into control wells, and the 3× agonist plate is transferred into a 384 well plate.
Cells are washed three times with 100 μL of buffer, leaving […] of buffer in each well. Using Multimek, 30 μL of Dye Loading Buffer is added into each well and incubated at 37° C., 5% CO2 for up to one hr.
After 60 min, the cells are washed three times with 100 μL of buffer, leaving 30 μL of buffer in each well. The cell plate, screening plate, and agonist addition plates are placed on the platform in the FLIPR and the door closed. A signal test to check background fluorescence and basal fluorescence signal is performed. Laser intensity is adjusted if necessary.

[1] = Table 3, inflection point calculated from the FLIPR values, read-out: IP Value
[2] = Table 1, CHOnfat/hM1 cells, FLIPR, read-out: M1 Pot.

EC50 [2] [nM] | SMILES | further results
160 | O=C1c2cc(CN3CCCC(F)(F)C3)c3ccccc3c2CN1C1CCCCC1O (centres unmarked) [Example 18, 5-[(3,3-difluoropiperidin-1-yl)methyl]-2-(2-hydroxycyclohexyl)-1,2-dihydro-3H-benzo[e]isoindol-3-one] | 
37 | N#CC1(F)CCN(Cc2cc3c(c4ccccc24)CN([C@H]2CCCC[C@@H]2O)C3=O)CC1 [Example 19, 4-fluoro-1-({2-[(1S,2S)-2-hydroxycyclohexyl]-3-oxo-2,3-dihydro-1H-benzo[e]isoindol-5-yl}methyl)piperidine-4-carbonitrile] | 
93 | N#CC1CCN(Cc2cc3c(c4ccccc24)CN([C@H]2CCCC[C@@H]2O)C3=O)CC1 [Example 20, 1-({2-[(1S,2S)-2-hydroxycyclohexyl]-3-oxo-2,3-dihydro-1H-benzo[e]isoindol-5-yl}methyl)piperidine-4-carbonitriIe] | 
1500 | CC1CCN(Cc2cc3c(c4ccccc24)CN([C@H]2CCCC[C@@H]2O)C3=O)CC1 [Example 21, 2-[(1S,2S)-2-hydroxycyclohexyl]-5-[(4-methylpiperidin-1-yl)methyl]-1,2-dihydro-3H-benzo[e]isoindol-3-one] | 
480 | O=C1c2cc(CN3CCC(O)CC3)c3ccccc3c2CN1C1CCCCC1O (centres unmarked) [Example 22, 2-(2-hydroxycyclohexyl)-5-[(4-hydroxypiperidin-1-yl)methyl]-1,2-dihydro-3H-benzo[e]isoindol-3-one] | 
3800 | O=C1c2cc(CN3CCCC3)c3ccccc3c2CN1C1CCCCC1O (centres unmarked) [Example 23, 2-(2-Hydroxycyclohexyl)-5-(pyrrolidin-1-ylmethyl)-1,2-dihydro-3H-benzo[e]isoindol-3-one] | 
150 | O=C1c2cc(CN3CCOCC3)c3ccccc3c2CN1C1CCCCC1O (centres unmarked) [Example 24, 2-(2-hydroxycyclohexyl)-5-(morpholin-4-ylmethyl)-1,2-dihydro-3H-benzo[e]isoindol-3-one] | 
12 | O=C1c2cc(CN3CCC(F)(F)CC3)c3ccccc3c2CN1C1CCCCC1O (centres unmarked) [Example 25, 5-[(4,4-difluoropiperidin-1-yl)methyl]-2-(2-hydroxycyclohexyl)-1,2-dihydro-3H-benzo[e]isoindol-3-one] | 
160 | O=C1c2cc(CN3CCC(F)CC3)c3ccccc3c2CN1C1CCCCC1O (centres unmarked) [Example 26, 5-[(4-fluoropiperidin-1-yl)methyl]-2-(2-hydroxycyclohexyl)-1,2-dihydro-3H-benzo[e]isoindol-3-one] | 
360 | O=C1c2cc(CN3CCC(C(F)(F)F)CC3)c3ccccc3c2CN1C1CCCCC1O (centres unmarked) [Example 27, 2-(2-hydroxycyclohexyl)-5-{[4-(trifluoromethyl)piperidin-1-yl]methyl}-1,2-dihydro-3H-benzo[e]isoindol-3-one] | 
1200 | O=C1c2cc(CN3CC(O)C(F)C3)c3ccccc3c2CN1C1CCCCC1O (centres unmarked) [Example 28, 5-[(3-fluoro-4-hydroxypyrrolidin-1-yl)methyl]-2-(2-hydroxycyclohexyl)-1,2-dihydro-3H-benzo[e]isoindol-3-one] | 
2700 | O=C1c2cc(CN3CCCC3C(F)(F)F)c3ccccc3c2CN1C1CCCCC1O (centres unmarked) [Example 30, 2-(2-hydroxycyclohexyl)-5-{[2-(trifluoromethyl)pyrrolidin-1-yl]methyl}-1,2-dihydro-3H-benzo[e]isoindol-3-one] | 

The remaining lines, values behind:

SMILES | EC50 [2] [nM] | further results
O=C1c2cc(CN3CCC(F)(F)CC3)c3cccnc3c2CN1[C@H]1CCOC[C@@H]1O [Example 7, 1,5-Anhydro-2,3-dideoxy-3-{5-[(4,4-difluoropiperidin-1-yl)methyl]-7-oxo-7,9-dihydro-8H-pyrrolo[3,4-h]quinolin-8-yl}-L-threo-pentitol] |  | EC50 [1]: 147 nM
O=C1c2cc(CN3CCC(F)(F)CC3)c3cccnc3c2CN1[C@H]1COCC[C@@H]1O [Example 8, 1,5-Anhydro-2,4-dideoxy-2-{5-[(4,4-difluoropiperidin-1-yl)methyl]-7-oxo-7,9-dihydro-8H-pyrrolo[3,4-h]quinolin-8-yl}-L-threo-pentitol] |  | EC50 [1]: 41 nM
C=CC1(F)CCN(Cc2cc3c(c4ncccc24)CN([C@H]2CCCC[C@@H]2O)C3=O)CC1 [Example 9, 5-[(4-Ethenyl-4-fluoropiperidin-1-yl)methyl]-8-[(1S,2S)-2-hydroxycyclohexyl]-8,9-dihydro-7H-pyrrolo[3,4-h]quinolin-7-one] |  | EC50 [1]: 420 nM
CN(C)C(=O)Oc1cccc(N2Cc3c(cc(CN4CCC(F)(F)CC4)c4cccnc34)C2=O)c1 [Example 10, 3-{5-[(4,4-Difluoropiperidin-1-yl)methyl]-7-oxo-7,9-dihydro-8H-pyrrolo[3,4-h]quinolin-8-yl}phenyl dimethylcarbamate] |  | EC50 (IP Value (nM), Table 3, inflection point calculated from the FLIPR values): 2260 nM
O=C1c2cc(CN3CCCCC3)c3ccccc3c2CN1[C@H]1CCCC[C@@H]1O [Example 11] | 4900 | 
CN1CCN(Cc2cc3c(c4ccccc24)CN([C@H]2CCCC[C@@H]2O)C3=O)CC1 [Example 12, 2-[(1S,2S)-2-hydroxycyclohexyl]-5-[(4-methylpiperazin-1-yl)methyl]-1,2-dihydro-3H-benzo[e]isoindol-3-one] | 1300 | 
CN1CCN(Cc2cc3c(c4ccccc24)CN([C@H]2CCCC[C@@H]2O)C3=O)CC1=O [Example 13, 2-[(1S,2S)-2-hydroxycyclohexyl]-5-[(4-methyl-3-oxopiperazin-1-yl)methyl]-1,2-dihydro-3H-benzo[e]isoindol-3-one] | 560 | 
CC(=O)N1CCN(Cc2cc3c(c4ccccc24)CN(C2CCCCC2O)C3=O)CC1 (centres unmarked) [Example 14, 5-[(4-acetylpiperazin-1-yl)methyl]-2-(2-hydroxycyclohexyl)-1,2-dihydro-3H-benzo[e]isoindol-3-one] | 2600 | 
CS(=O)(=O)N1CCN(Cc2cc3c(c4ccccc24)CN(C2CCCCC2O)C3=O)CC1 (centres unmarked) [Example 15, 2-(2-hydroxycyclohexyl)-5-{[4-(methylsulfonyl)piperazin-1-yl]methyl}-1,2-dihydro-3H-benzo[e]isoindol-3-one] | 720 | 
CC1CCCN(Cc2cc3c(c4ccccc24)CN(C2CCCCC2O)C3=O)C1 (centres unmarked) [Example 16, 2-(2-hydroxycyclohexyl)-5-[(3-methylpiperidin-1-yl)methyl]-1,2-dihydro-3H-benzo[e]isoindol-3-one] | 7800 | 
O=C1c2cc(CN3CCCC(F)C3)c3ccccc3c2CN1C1CCCCC1O (centres unmarked) [Example 17, 5-[(3-fluoropiperidin-1-yl)methyl]-2-(2-hydroxycyclohexyl)-1,2-dihydro-3H-benzo[e]isoindol-3-one] | 320 | 
